The values below come from patent US8921397B2, “Benzofurane-piperidine compounds” (Hoffmann-La Roche Inc., priority 2011, dated 2014).

pKi: −log10 of the molar value.

In data set [1] the target is human D2 receptor (Homo sapiens (Human), UniProt P14416). The experiment in a line: Radioligand binding ([3H]-spiperone) to human D2 receptor, HEK293 EBNA membranes. The following applies: HEK293 EBNA cells expressing human D2 receptor. The essentials: (§1)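 Membranes from transiently transfected HEK293 EBNA cells (~7.5 μg protein/well) were incubated 1 h at RT with [3H]-spiperone (~0.7 nM for D2, 0.5 nM for D3) and ten compound concentrations (10 μM–0.1 nM) in Tris/NaCl/MgCl2/CaCl2 buffer pH 7.4. Filtration and scintillation counting, nonspecific with 10 μM spiperone; Ki via Cheng-Prusoff.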

Data set [2] addresses human D3 receptor (Homo sapiens (Human), UniProt P35462). The experiment in a line: Radioligand binding ([3H]-spiperone) to human D3 receptor, HEK293 EBNA membranes. The following applies: HEK293 EBNA cells expressing human D3 receptor. In short, it runs like this:
as §1

In data set [3] the target is human 5-HT2A receptor (Homo sapiens (Human), UniProt P28223). Description: Radioligand binding ([3H]-ketanserin) to human 5-HT2A receptor, HEK293 EBNA membranes. The following applies: HEK293 EBNA cells expressing human 5-HT2A receptor. In short, it runs like this:
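Membranes from HEK293 EBNA cells transiently expressing the human receptor were incubated 1 h at RT with ~0.7 nM (D2) or 0.5 nM (D3) [3H]-spiperone, or 1.1 nM [3H]-ketanserin (5-HT2A), plus ten compound concentrations (10 μM–0.1 nM). Nonspecific binding was set with 10 μM spiperone; Ki was derived from IC50 via Cheng-Prusoff.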

human D2 receptor, sequence (P14416 whole entry): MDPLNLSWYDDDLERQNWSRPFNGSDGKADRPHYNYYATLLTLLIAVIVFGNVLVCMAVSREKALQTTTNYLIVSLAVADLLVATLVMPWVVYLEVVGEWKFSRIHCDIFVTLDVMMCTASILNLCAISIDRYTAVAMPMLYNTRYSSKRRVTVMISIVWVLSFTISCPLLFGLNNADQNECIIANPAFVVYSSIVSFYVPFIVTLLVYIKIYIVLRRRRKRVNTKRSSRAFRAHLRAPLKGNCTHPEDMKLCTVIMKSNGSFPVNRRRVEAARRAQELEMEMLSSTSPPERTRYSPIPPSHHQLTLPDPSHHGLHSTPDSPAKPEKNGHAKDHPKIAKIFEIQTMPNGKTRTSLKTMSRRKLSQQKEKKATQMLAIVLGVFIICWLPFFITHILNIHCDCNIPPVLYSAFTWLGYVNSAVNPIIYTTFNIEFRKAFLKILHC
human D3 receptor, sequence (P35462 whole entry): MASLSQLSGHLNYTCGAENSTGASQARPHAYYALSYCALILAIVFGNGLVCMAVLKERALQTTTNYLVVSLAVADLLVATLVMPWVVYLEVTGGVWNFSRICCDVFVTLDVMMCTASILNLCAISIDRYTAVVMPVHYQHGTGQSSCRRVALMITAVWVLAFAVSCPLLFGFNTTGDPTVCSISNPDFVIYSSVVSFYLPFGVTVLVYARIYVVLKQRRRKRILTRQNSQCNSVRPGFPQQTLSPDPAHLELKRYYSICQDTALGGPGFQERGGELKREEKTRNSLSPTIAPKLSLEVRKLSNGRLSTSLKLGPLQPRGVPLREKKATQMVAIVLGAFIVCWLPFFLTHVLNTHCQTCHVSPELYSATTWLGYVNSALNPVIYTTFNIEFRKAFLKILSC
human 5-HT2A receptor, sequence (P28223 whole entry): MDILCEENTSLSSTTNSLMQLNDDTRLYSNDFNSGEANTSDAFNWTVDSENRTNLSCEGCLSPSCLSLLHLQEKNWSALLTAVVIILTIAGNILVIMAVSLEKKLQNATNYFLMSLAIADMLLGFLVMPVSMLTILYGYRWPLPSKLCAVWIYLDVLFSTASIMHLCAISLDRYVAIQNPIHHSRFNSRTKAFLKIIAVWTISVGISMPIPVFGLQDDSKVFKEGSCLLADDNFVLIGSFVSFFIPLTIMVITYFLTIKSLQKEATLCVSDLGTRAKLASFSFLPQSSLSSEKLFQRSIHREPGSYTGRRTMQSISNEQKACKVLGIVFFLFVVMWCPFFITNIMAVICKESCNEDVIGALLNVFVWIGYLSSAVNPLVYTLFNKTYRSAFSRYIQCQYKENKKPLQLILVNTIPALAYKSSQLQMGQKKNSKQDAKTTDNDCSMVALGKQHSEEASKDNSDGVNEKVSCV

Broadly, the pKi is the negative decadic logarithm of the Ki, by convention in mol/L. As a reminder, the melting point is the temperature, or range, at which the solid turns liquid. For the compound `O=C(N[C@H]1CC[C@H](CCN2CCC(c3coc4ccccc34)CC2)CC1)c1ccc(C2CC2)cc1` [Example 84, trans-N-{4-[2-(4-Benzofuran-3-yl-piperidin-1-yl)-ethyl]-cyclohexyl}-4-cyclopropyl-benzamide], the melting point came out at 199 °C. In addition, in data set [1], the pKi is 6.45. Also, the pKi in data set [2] is 7.85. In addition, the negative-log Ki (pKi) in data set [3] was 8.67.

Regarding `CN(C)C(=O)CCC(=O)N[C@H]1CC[C@H](CCN2CCC(c3coc4ccccc34)CC2)CC1` [Example 42, trans-N-{4-[2-(4-Benzofuran-3-yl-piperidin-1-yl)-ethyl]-cyclohexyl}-N′,N′-dimethyl-succinamide], the melting point was 167 °C. In addition, in data set [1], the pKi is 7.03. In addition, the pKi in data set [2] was 8.61. Besides, in data set [3], the pKi is 8.11.

As for `CO[C@H]1CC[C@H](CC(=O)N[C@H]2CC[C@H](CCN3CCC(c4coc5ccccc45)CC3)CC2)CC1` [Example 72, trans-N-{4-[2-(4-Benzofuran-3-yl-piperidin-1-yl)-ethyl]-cyclohexyl}-2-trans-(4-methoxy-cyclohexyl)-acetamide], the melting point was 179 °C. For the same compound, the pKi in data set [1] is 7.17. For the same compound, the negative logarithm of the Ki (pKi) in data set [2] is 8.51. Also, the pKi in data set [3] is 8.09.

As to `O=C(CC1CCCO1)N[C@H]1CC[C@H](CCN2CCC(c3coc4ccccc34)CC2)CC1` (stereo partly drawn) [Example 29, trans-N-{4-[2-(4-Benzofuran-3-yl-piperidin-1-yl)-ethyl]-cyclohexyl}-2-(tetrahydro-furan-2-yl)-acetamide], the melting point was determined as 149 °C. Besides, in data set [1], the pKi was 7.28. For the same compound, the pKi in data set [2] is 8.56. Also, in data set [3], the negative-log Ki (pKi) was 8.27.

In the case of `O=C(CC1CCC1)N[C@H]1CC[C@H](CCN2CCC(c3coc4ccccc34)CC2)CC1` [Example 48, trans-N-{4-[2-(4-Benzofuran-3-yl-piperidin-1-yl)-ethyl]-cyclohexyl}-2-cyclobutyl-acetamide], the melting point amounted to 173 °C. In data set [1], the negative logarithm of the Ki (pKi) was 7.23. Also, the negative logarithm of the Ki (pKi) in data set [2] was 8.69. Moreover, in data set [3], the negative-log Ki (pKi) was 8.31.

`CCC(C)C(=O)N[C@H]1CC[C@H](CCN2CCC(c3coc4ccccc34)CC2)CC1` (mixture of isomers) [Example 31, trans-N-{4-[2-(4-Benzofuran-3-yl-piperidin-1-yl)-ethyl]-cyclohexyl}-(RS)-2-methyl-butyramide] registered a melting point of 172 °C. Also, in data set [1], the pKi is 7.34. For the same compound, the negative-log Ki (pKi) in data set [2] is 8.32. Besides, in data set [3], the pKi is 8.18.

On to `Cc1ccc(S(=O)(=O)N[C@H]2CC[C@H](CCN3CCC(c4coc5ccccc45)CC3)CC2)cc1` [Example 38, trans-N-{4-[2-(4-Benzofuran-3-yl-piperidin-1-yl)-ethyl]-cyclohexyl}-4-methyl-benzenesulfonamide], for which the melting point stood at 149 °C. Also, in data set [1], the pKi was 7.23. Moreover, the negative logarithm of the Ki (pKi) in data set [2] was 8.20. Further, the negative-log Ki (pKi) in data set [3] is 7.38.

With `O=C(N[C@H]1CC[C@H](CCN2CCC(c3coc4ccccc34)CC2)CC1)c1ccc(-n2cccc2)cc1` [Example 68, trans-N-{4-[2-(4-Benzofuran-3-yl-piperidin-1-yl)-ethyl]-cyclohexyl}-4-pyrrol-1-yl-benzamide], the melting point amounted to 212 °C. The pKi in data set [1] is 7.47. In addition, the negative logarithm of the Ki (pKi) in data set [2] was 8.34. For the same compound, the pKi in data set [3] is 7.99.

In turn, `O=C(N[C@H]1CC[C@H](CCN2CCC(c3coc4ccccc34)CC2)CC1)c1ccc(C2CCCCC2)cc1` [Example 82, trans-N-{4-[2-(4-Benzofuran-3-yl-piperidin-1-yl)-ethyl]-cyclohexyl}-4-cyclohexyl-benzamide] came in with a melting point of 230 °C. The “D2 Ki” value in data set [1] is on record as “inact”. Moreover, the negative-log Ki (pKi) in data set [2] is 7.38. In data set [3], the pKi was 8.24.

Turning to `O=C(N[C@H]1CC[C@H](CCN2CCC(c3coc4ccccc34)CC2)CC1)c1ccc(F)cc1` [Example 24, trans-N-{4-[2-(4-Benzofuran-3-yl-piperidin-1-yl)-ethyl]-cyclohexyl}-4-fluoro-benzamide], the melting point is 193 °C. Besides, in data set [1], the pKi is 7.16. The pKi in data set [2] was 8.52. For the same compound, the pKi in data set [3] was 8.25.

As for `COC(CC(=O)N[C@H]1CC[C@H](CCN2CCC(c3coc4ccccc34)CC2)CC1)OC` [Example 52, trans-N-{4-[2-(4-Benzofuran-3-yl-piperidin-1-yl)-ethyl]-cyclohexyl}-3,3-dimethoxy-propionamide], the melting point came to 148 °C. The pKi in data set [1] is 7.31. In data set [2], the pKi is 8.84. Moreover, in data set [3], the pKi was 8.23.

On to `CC(C)C(=O)N[C@H]1CC[C@H](CCN2CCC(c3coc4ccccc34)CC2)CC1` [Example 14, trans-N-{4-[2-(4-Benzofuran-3-yl-piperidin-1-yl)-ethyl]-cyclohexyl}-isobutyramide], for which the melting point was 173 °C. In addition, in data set [1], the pKi is 7.40. Besides, in data set [2], the pKi is 8.75. For the same compound, the negative logarithm of the Ki (pKi) in data set [3] was 8.24.

In the case of `O=C(CC(F)(F)F)N[C@H]1CC[C@H](CCN2CCC(c3coc4ccccc34)CC2)CC1` [Example 12, trans-N-{4-[2-(4-Benzofuran-3-yl-piperidin-1-yl)-ethyl]-cyclohexyl}-3,3,3-trifluoro-propionamide], the melting point was 182 °C. Moreover, the pKi in data set [1] was 7.37. The pKi in data set [2] is 9.00. Further, the negative logarithm of the Ki (pKi) in data set [3] is 8.09.

`O=C(CC1CC1)N[C@H]1CC[C@H](CCN2CCC(c3coc4ccccc34)CC2)CC1` [Example 25, trans-N-{4-[2-(4-Benzofuran-3-yl-piperidin-1-yl)-ethyl]-cyclohexyl}-2-cyclopropyl-acetamide] gave a melting point of 165 °C. Besides, the negative logarithm of the Ki (pKi) in data set [1] was 7.47. In data set [2], the pKi was 8.65. The negative-log Ki (pKi) in data set [3] was 8.29.

The compound `COCC(=O)N[C@H]1CC[C@H](CCN2CCC(c3coc4ccccc34)CC2)CC1` [Example 6, trans-N-{4-[2-(4-Benzofuran-3-yl-piperidin-1-yl)-ethyl]-cyclohexyl}-2-methoxy-acetamide] came in with a melting point of 115 °C. Further, in data set [1], the pKi was 7.10. Further, the pKi in data set [2] was 8.45. In data set [3], the negative-log Ki (pKi) was 8.47.

As to `CC(C)(C)CC(=O)N[C@H]1CC[C@H](CCN2CCC(c3coc4ccccc34)CC2)CC1` [Example 40, trans-N-{4-[2-(4-Benzofuran-3-yl-piperidin-1-yl)-ethyl]-cyclohexyl}-3,3-dimethyl-butyramide], the melting point came to 174 °C. For the same compound, the negative-log Ki (pKi) in data set [1] was 7.28. Also, in data set [2], the pKi is 8.36. For the same compound, the pKi in data set [3] was 7.98.

In turn, `O=C(CCC(F)(F)F)N[C@H]1CC[C@H](CCN2CCC(c3coc4ccccc34)CC2)CC1` [Example 44, trans-N-{4-[2-(4-Benzofuran-3-yl-piperidin-1-yl)-ethyl]-cyclohexyl}-4,4,4-trifluoro-butyramide] gave a melting point of 192 °C. Besides, the pKi in data set [1] was 7.21. For the same compound, in data set [2], the negative logarithm of the Ki (pKi) was 8.53. For the same compound, the negative-log Ki (pKi) in data set [3] is 7.83.

`CN1CCN(c2ccc(C(=O)N[C@H]3CC[C@H](CCN4CCC(c5coc6ccccc56)CC4)CC3)cc2)CC1` [Example 62, trans-N-{4-[2-(4-Benzofuran-3-yl-piperidin-1-yl)-ethyl]-cyclohexyl}-4-(4-methyl-piperazin-1-yl)-benzamide] yielded a melting point of 242 °C. The negative-log Ki (pKi) in data set [1] was 7.30. Besides, the pKi in data set [2] is 8.22. Further, the negative-log Ki (pKi) in data set [3] is 8.05.

As to `CCS(=O)(=O)N[C@H]1CC[C@H](CCN2CCC(c3coc4ccccc34)CC2)CC1` [Example 37, Ethanesulfonic acid trans-{4-[2-(4-benzofuran-3-yl-piperidin-1-yl)-ethyl]-cyclohexyl}-amide], the melting point was 153 °C. For the same compound, the pKi in data set [1] is 7.32. In addition, in data set [2], the negative-log Ki (pKi) is 8.54. In addition, the negative logarithm of the Ki (pKi) in data set [3] is 8.29.

`CS(=O)(=O)c1ccc(C(=O)N[C@H]2CC[C@H](CCN3CCC(c4coc5ccccc45)CC3)CC2)s1` [Example 75, 5-Methanesulfonyl-thiophene-2-carboxylic acid trans-{4-[2-(4-benzofuran-3-yl-piperidin-1-yl)-ethyl]-cyclohexyl}-amide] gave a melting point of 214 °C. In addition, the pKi in data set [1] was 7.22. In addition, in data set [2], the negative-log Ki (pKi) was 8.41. For the same compound, in data set [3], the negative logarithm of the Ki (pKi) was 8.11.

In the case of `O=C(CC1CCOCC1)N[C@H]1CC[C@H](CCN2CCC(c3coc4ccccc34)CC2)CC1` [Example 4, trans-N-{4-[2-(4-Benzofuran-3-yl-piperidin-1-yl)-ethyl]-cyclohexyl}-2-(tetrahydro-pyran-4-yl)-acetamide], the melting point stood at 175 °C. In addition, the negative-log Ki (pKi) in data set [1] is 7.11. The pKi in data set [2] is 8.50. Further, the pKi in data set [3] was 8.27.

With `O=C(Cc1ccc2c(c1)OCO2)N[C@H]1CC[C@H](CCN2CCC(c3coc4ccccc34)CC2)CC1` [Example 74, trans-2-Benzo[1,3]dioxol-5-yl-N-{4-[2-(4-benzofuran-3-yl-piperidin-1-yl)-ethyl]-cyclohexyl}-acetamide], the melting point stood at 177 °C. The pKi in data set [1] was 7.03. For the same compound, the negative logarithm of the Ki (pKi) in data set [2] was 8.78. In addition, the pKi in data set [3] is 7.94.
